In paper PMC9995496, “A screen for MeCP2-TBL1 interaction inhibitors using a luminescence-based assay” (Scientific Reports, 2023):
Ends that are not written are not given here. * marks the point of attachment. Biotin = O=C1N[C@H]2[C@H](CS[C@H]2CCCCC(=O)*)N1
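For Inhibition percent in this document: each compound tested at 20 µM final concentration.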

What follows are compounds tested against T1, MeCP2-TBL1 interaction (MeCP2-SmBiT / TBL1-LgBiT) (Mus musculus, UniProt Q9QXE7) (assay: MeCP2-TBL1 NanoLuc luciferase complementation assay (cell-free, extracts of transfected HEK293 cells)). Details: peptide at 20 µM, n = 2.
T1 construct: expressed in transfected cells; crude lysate used as a cell-free assay
T1 sequence (Q9QXE7 166-527): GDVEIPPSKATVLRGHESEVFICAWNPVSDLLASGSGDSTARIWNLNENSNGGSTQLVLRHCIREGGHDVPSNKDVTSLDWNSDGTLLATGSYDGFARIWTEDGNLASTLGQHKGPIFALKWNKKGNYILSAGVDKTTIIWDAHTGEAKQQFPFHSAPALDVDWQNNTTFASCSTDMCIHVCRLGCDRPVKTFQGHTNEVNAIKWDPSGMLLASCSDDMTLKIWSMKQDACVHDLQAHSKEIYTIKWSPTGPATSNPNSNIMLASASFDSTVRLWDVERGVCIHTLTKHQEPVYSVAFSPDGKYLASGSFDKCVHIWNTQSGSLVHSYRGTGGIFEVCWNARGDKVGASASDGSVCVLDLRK
Assay type: binding, human
In short: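 Cell-free split NanoLuc: lysate of HEK293 cells co-expressing the MeCP2 C-terminal half-SmBiT and TBL1 WD domain-LgBiT, mixed 1:1 with furimazine. After 30 min at room temperature, luminescence was plate-median normalized.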
In the case of “35 amino acid peptide: 35 amino acid MeCP2 wild-type NID peptide (residues 285-319), N-terminal biotin (Biotin-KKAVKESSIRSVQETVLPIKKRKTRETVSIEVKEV; UniProt P51608 285-319, looked up, fragment) [reference compound]”, the “effect of competitor peptide on MeCP2-TBL1 luminescence signal” value was “strongly inhibited”.

Same assay, conditions: primary screen of Asinex library, single well per compound
For `Cn1nc(C(F)(F)F)cc1C(=O)NCC[C@@H]1C[C@@H](S(=O)(=O)c2ccccc2)CCO1` [BDF_23100510], the Inhibition percent was 0.85. Work on `COc1cccc(C2CN(Cc3ccccc3)C(=O)C23CCN(Cc2ccc(C(=O)O)cc2)CC3)c1` (stereo not shown) [BDH_34130105] yielded an Inhibition percent of 0.45. `Cc1ccc(C(=O)N2CCC3(CC2)COC(Cc2cccc(F)c2)C3)cc1NCc1ccccn1` (stereo not shown) [BDH_32362747] was tested, and the Inhibition percent was 0.11. `O=C(c1ccc(Cc2cccc(F)c2)nc1)N1CCCC2(CC1)CN(c1ccccc1)C(=O)O2` (stereo not shown) [BDH_32296010] showed an Inhibition percent of -0.22. Work on `COc1cccc([C@@H]2C[C@]3(C)NC(=O)CCCC[C@@H]3N2CC(=O)Nc2cc(C)ccc2F)c1` [BDH_33619764] yielded an Inhibition percent of -0.65. `COc1ccc2c(c1)OC(C)(C)[C@H]1CC3(CCN(C(=O)CCn4ccnc4)CC3)CO[C@H]21` [BDG_33691777] gave an Inhibition percent of -0.71. For `CN1CCN(c2cc(C(=O)N3CCC(O)(CN4CCN(c5ccccc5)CC4)C3)ccn2)CC1` (stereo not shown) [BDH_32365527], the Inhibition percent was -1.97. `Cc1ccc(C2(C(=O)N3CCC4(CC3)CC(Oc3ccccc3)CO4)CCOCC2)cc1` (stereo not shown) [BDH_32343765] showed an Inhibition percent of 1.12. Work on `Cc1ccc(C(=O)N2C[C@@H](c3ccc(F)cc3)[C@@]3(CCCC(=O)N3)C2)cc1NCc1ccccn1` [BDH_32371225] yielded an Inhibition percent of -3.76.

Same assay, conditions: primary screen of the Asinex library, sheet "Sargen output Asinex library", one well per compound
For `Cc1cc(CC2CCN(C(=O)C3(C)CCN(C(=O)Cc4cccc(F)c4)CC3)CC2)ccn1` [BDH_32366782], the Inhibition percent was 4.29%. `COc1cccc([C@@H]2C[C@]3(C)NC(=O)CCCC[C@@H]3N2CC(=O)Nc2ccc3c(c2)nc(C)n3C)c1` [BDH_33617989] gave an Inhibition percent of 1.66%. For `CC(=O)N1CCc2nc(C3CCCN(C)C3)nc(NCCCc3ccccc3Cl)c2C1` (stereo not shown) [BDE_25356631], the Inhibition percent was 2.24%. Work on `CNC(=O)c1cccc(C2CN(C(=O)c3ccc(OCc4ccccn4)c(OC)c3)CCN2C)c1` (stereo not shown) [BDH_32373002] yielded an Inhibition percent of 4.71%. With `CNc1nc(C2CCCCN2C(=O)CCNc2nc(C)cc(C)n2)nc2c1CCN(C(C)=O)C2` (stereo not shown) [BDH_33629184] the Inhibition percent was -0.36%. `COc1cccc([C@@H]2C[C@]3(C)NC(=O)CCCC[C@@H]3N2CC(=O)Nc2ccc3[nH]c(=O)[nH]c3c2)c1` [BDH_33615500] showed an Inhibition percent of -1.75%. Compound `O=C(NCCc1ccc(Cl)cc1)C1(Cc2cc(-c3ccccc3)no2)CCCO1` (stereo not shown) [BDE_24757019] has an Inhibition percent of 8.09%. For `CCc1nnsc1C(=O)N(CC)[C@H]1CCO[C@@H](c2cccc(-c3cncnc3)c2)C1` [BDF_23117916], the Inhibition percent was -3.67%. Work on `Cc1cc(Oc2ccc(F)cc2)nc(C2CCCCN2C(=O)c2ccnc(-c3cncnc3)c2)n1` (stereo not shown) [BDH_32364851] yielded an Inhibition percent of -4.83%. For `COCCN1CC=CCC2(CCN(CC(=O)N(Cc3ccccc3)C(C)C)CC2)C1=O` [BDE_25851451], the Inhibition percent was -2.37%. `Cc1ccc(CC(=O)N2CCCC(c3ncccc3C(=O)NCc3ccccc3)C2)cc1C` (stereo not shown) [BDE_24458967] was tested, and the Inhibition percent was -0.34%. With `Cc1c(C(=O)N2CCC(O)(CN3CCN(c4ccccc4)CC3)C2)cccc1N1CCOCC1` (stereo not shown) [BDH_32364008] the Inhibition percent was -0.54%. `COc1ccc([C@@H]2[C@H]3CCCC[C@@]3(O)CCN2CC(=O)Nc2ccc(N3CCOCC3)cc2)cc1` [BDH_33614948] was tested, and the Inhibition percent was 1.72%. In the case of `CN(Cc1cccc(F)c1)Cc1nc(C2CC(=O)N(Cc3ccccc3)C2)cc(N(C)C)n1` (stereo not shown) [BDD_23510085], the Inhibition percent was -0.99%. `Cc1cc(C)n(-c2cccc(C(=O)N3C[C@@H](c4ccccc4)[C@@]4(CCCCC(=O)N4)C3)c2)n1` [BDH_20395756] gave an Inhibition percent of -4.76%. Compound `COc1cccc2c1OC1(CCN(C)CC1)[C@H]1CCCO[C@H]21` [BDG_33900051] has an Inhibition percent of -1.32%. Work on `CC(C)(NC(=O)c1ccccc1)C(=O)N1C[C@@H](c2ccc(F)cc2)[C@@]2(CCCC(=O)N2)C1` [BDH_32326628] yielded an Inhibition percent of 0.18%. In the case of `CC(C)(NC(=O)c1ccccc1)C(=O)N1C2CCC1CC(Cc1ccc3ccncc3c1)C2` (stereo not shown) [BDH_32326823], the Inhibition percent was -1.86%. With `O=C1OC2(CCCN(C(=O)c3ccnc(N4CCOCC4)c3)CC2)CN1CCc1ccccc1` (stereo not shown) [BDH_32370969] the Inhibition percent was -1.73%. Work on `COC(C)(C)C(=O)N1CCC2(CC1)Oc1c(O)cccc1[C@H]1OCCC[C@@H]12` [BDG_33900229] yielded an Inhibition percent of -2.79%. Work on `COc1ccc(C2(C(=O)N3CCC(Cc4cccc5cccnc45)CC3)CCOCC2)cc1` [BDH_32344076] yielded an Inhibition percent of 3.92%. Work on `COc1ccccc1Cc1ccc(C(=O)N2CCCC2c2cccc(-c3cncn3C)n2)cn1` (stereo not shown) [BDH_33521317] yielded an Inhibition percent of -1.25%. `C[C@@H]1CC[C@@H]2[C@@H](O1)c1cc(C(=O)NCCc3ccccc3)ccc1OC2(C)C` [BDG_34018895] gave an Inhibition percent of -0.86%. `C[C@@]12C[C@H]3[C@H](Cc4ccccc4)N[C@@H]1CCCC[C@@H]2N3C(=O)c1ccnc(Cc2ccccc2)c1` [BDH_33392602] was tested, and the Inhibition percent was 3.55%. In the case of `CC1(C)Oc2c(O)cccc2[C@H]2O[C@H]3CCN(CC(=O)N4CC(=O)Nc5ccccc54)[C@@H]3C[C@@H]21` [BDG_34134040], the Inhibition percent was 2.67%. Compound `O=C(c1ccnc(Cc2cccc(F)c2)c1)N1CCC[C@]2(C[C@@H](Oc3ccc(F)cc3)CO2)C1` [BDH_32304392] has an Inhibition percent of 5.07%.

Same assay, conditions: primary screen of the Asinex library, sheet "Sargen output Asinex library", one well per compound, Batch Ref. 1
With `COc1cccc(CN2CCC3(C/C=C/COc4ccccc4C(=O)NCCNC3=O)CC2)c1F` [BDH_33701964] the Inhibition percent was -0.89%. `O=C(c1ccccc1OCCN1CCOCC1)N1CCCC(Cc2cccc3cccnc23)CC1` (stereo not shown) [BDH_32353622] showed an Inhibition percent of 2.11%. `COc1ccccc1-c1ccc(CN2C[C@@H](c3cccc(NC(C)=O)c3)[C@@]3(CCCCC(=O)N3)C2)cc1` [BDD_23570835] gave an Inhibition percent of 5.89%. `CC1(C)C[C@H]2[C@H](CCCN2C(=O)CCCc2cn[nH]c2)N1c1cccc(C(F)(F)F)c1` [BDG_34130326] showed an Inhibition percent of 14.87%. Work on `O=C(Cn1ncc2ccccc2c1=O)N1CCCCC1c1ncc(Cc2ccccc2F)o1` (stereo not shown) [BDE_33507923] yielded an Inhibition percent of 3.33%. `CC(=O)N[C@@]12CN(C(C)=O)CC[C@@H]1[C@@H](c1ccccc1)N(CC(=O)Nc1cccc(F)c1C)C2` [BDH_33622250] showed an Inhibition percent of -0.19%. `NC(=O)c1cnn2c(C3CCCCN3C(=O)c3ccnc(Cc4ccccc4)c3)ccnc12` (stereo not shown) [BDH_33521422] was tested, and the Inhibition percent was -0.87%. Work on `CCCCC[C@]1(O)CCN(S(=O)(=O)c2ccccc2)C[C@@H]1Oc1cccc(F)c1` [BDH_34032183] yielded an Inhibition percent of 9.13%. With `COc1ccc(NC(=O)CN2CC[C@@]3(NC(C)=O)CN(C(C)=O)[C@H](c4ccccc4)[C@H]3C2)cc1` [BDH_33626570] the Inhibition percent was -3.55%. `CC(=O)N1CCCCC[C@@H]2[C@@H]1C[C@@H](Cc1ccccc1)N2C(=O)c1cccc(Cn2cncn2)c1` [BDH_33630828] showed an Inhibition percent of -0.42%. With `Nc1ncc(-c2cccc(C(F)(F)F)c2)c(C2CCCCN2C(=O)CCNC(=O)c2cccnc2)n1` (stereo not shown) [BDH_33627369] the Inhibition percent was 1.39%. Compound `O=C1CCC[C@]2(CN(Cc3cccc(-c4ccccc4F)c3)C[C@H]2c2ccc(F)c(F)c2)N1` [BDD_23570819] has an Inhibition percent of 11.60%. `Cc1ccccc1Cc1cccc(C2CN(C(=O)c3nccc4ccccc34)CCO2)n1` (stereo not shown) [BDF_25249064] gave an Inhibition percent of 6.97%. `CC(=O)Nc1ccc(C(=O)N2CCOC(c3cccc(Cc4ccccc4Cl)n3)C2)cc1` (stereo not shown) [BDF_27578760] was tested, and the Inhibition percent was 0.59%. `COc1cccc(-c2cc(C(=O)N3CCCCC3c3ncc(Cc4ccccc4OC)o3)[nH]n2)c1` (stereo not shown) [BDE_33513613] was tested, and the Inhibition percent was 18.16%. `C[C@@]12C[C@H]3[C@H](Cc4ccccc4)N[C@@H]1CCCC[C@@H]2N3C(=O)COc1ccccc1` [BDG_33505297] gave an Inhibition percent of -0.84%. With `C[C@]12C[C@@H]3N[C@H]1CCC[C@H]2N(C(=O)COc1ccccc1F)[C@H]3Cc1ccccc1` [BDG_33391690] the Inhibition percent was 4.10%. In the case of `CC(C)(C)OC(=O)N1[C@@H](CNC(=O)CCc2c[nH]c3ccccc23)C[C@@]2(C)[C@@H](O)CCCC[C@@H]12` [BDH_33903570], the Inhibition percent was 3.52%. Work on `Cc1cc(O)cc(=O)n1CCC(=O)N1CCCCC1C1CCN(C(=O)Cc2ccccc2F)CC1` (stereo not shown) [BDH_33629102] yielded an Inhibition percent of -1.24%. Work on `COc1ccccc1Cc1ccc(C(=O)N2CCC(c3cccc(-c4cncn4C)n3)CC2)cn1` [BDH_33521315] yielded an Inhibition percent of 0.21%. `CC1(Cc2ccc(F)cc2)Cc2cc(C(=O)N(CCCc3ccc(Cl)cc3)CC(=O)O)ccc2O1` (stereo not shown) [BDG_34127624] was tested, and the Inhibition percent was 0.89%. `Cn1ccnc1-c1nccnc1C1CCN(C(=O)c2ccnc(Cc3cccc(F)c3)c2)CC1` [BDH_33521386] was tested, and the Inhibition percent was -2.61%. `COc1cccc2c1OC1(CCN(C(=O)C(C)(C)OC)CC1)[C@H]1CCCO[C@H]21` [BDG_33900230] gave an Inhibition percent of -2.85%. Work on `Cc1cccc(NC(=O)CCCC(=O)N2[C@H](Cc3ccccc3)C[C@]3(C)NC(=O)CCC[C@H]23)n1` [BDG_33629701] yielded an Inhibition percent of -3.82%. `Cc1cc(O[C@@H]2C[C@@H](NC(=O)CCCC(=O)O)[C@H](N3CCc4ccccc4C3)[C@H]2O)cc(C(C)C)c1` [BDG_34135452] gave an Inhibition percent of -0.70%.
